Measured values published in PubChem BioAssay (NCI).
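A five-concentration, 48-hour dose response in 96-well plates underlies each endpoint, interpolated linearly between surrounding concentrations. TGI: total growth inhibition.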

How the values were obtained:
Assay in all cases: NCI-60 cell line screen, 48 h
MALME-3M melanoma = tested on: MALME-3M melanoma
HS 578T breast = tested on: HS 578T breast
MOLT-4 leukemia = tested on: MOLT-4 leukemia
OVCAR-8 ovarian = tested on: OVCAR-8 ovarian
SF-268 CNS = tested on: SF-268 CNS
HOP-62 NSCLC = tested on: HOP-62 NSCLC
NCI-H460 lung = tested on: NCI-H460 lung
HOP-92 NSCLC = tested on: HOP-92 NSCLC
T-47D breast = tested on: T-47D breast
NCI/ADR-RES ovarian = tested on: NCI/ADR-RES ovarian
MDA-N = tested on: MDA-N
CAKI-1 renal = tested on: CAKI-1 renal
SNB-19 CNS = tested on: SNB-19 CNS
NCI-H522 lung = tested on: NCI-H522 lung
ACHN renal = tested on: ACHN renal
IGROV1 ovarian = tested on: IGROV1 ovarian
UO-31 renal = tested on: UO-31 renal
OVCAR-5 ovarian = tested on: OVCAR-5 ovarian
HCT-15 colon = tested on: HCT-15 colon
UACC-62 melanoma = tested on: UACC-62 melanoma
HCT-116 colon = tested on: HCT-116 colon
SK-MEL-28 melanoma = tested on: SK-MEL-28 melanoma
OVCAR-4 ovarian = tested on: OVCAR-4 ovarian
HL-60(TB) leukemia = tested on: HL-60(TB) leukemia
MCF7 breast = tested on: MCF7 breast
SK-MEL-2 melanoma = tested on: SK-MEL-2 melanoma
KM12 colon = tested on: KM12 colon
SN12C renal = tested on: SN12C renal
SF-539 CNS = tested on: SF-539 CNS
K-562 leukemia = tested on: K-562 leukemia
RXF 393 renal = tested on: RXF 393 renal
NCI-H23 lung = tested on: NCI-H23 lung
DU-145 prostate = tested on: DU-145 prostate
SNB-75 CNS = tested on: SNB-75 CNS
HT29 colon = tested on: HT29 colon
MDA-MB-231 breast = tested on: MDA-MB-231 breast
RPMI-8226 leukemia = tested on: RPMI-8226 leukemia
A498 renal = tested on: A498 renal
LOX IMVI melanoma = tested on: LOX IMVI melanoma
EKVX NSCLC = tested on: EKVX NSCLC
U251 CNS = tested on: U251 CNS
COLO 205 colon = tested on: COLO 205 colon
MDA-MB-435 = tested on: MDA-MB-435
786-0 renal = tested on: 786-0 renal
HCC-2998 colon = tested on: HCC-2998 colon
NCI-H226 lung = tested on: NCI-H226 lung
A549 NSCLC = tested on: A549 NSCLC
SR leukemia = tested on: SR leukemia
CCRF-CEM leukemia = tested on: CCRF-CEM leukemia
SW-620 colon = tested on: SW-620 colon
PC-3 prostate = tested on: PC-3 prostate
M14 melanoma = tested on: M14 melanoma
SK-MEL-5 melanoma = tested on: SK-MEL-5 melanoma
UACC-257 melanoma = tested on: UACC-257 melanoma
SK-OV-3 ovarian = tested on: SK-OV-3 ovarian
OVCAR-3 ovarian = tested on: OVCAR-3 ovarian
SF-295 CNS = tested on: SF-295 CNS
TK-10 renal = tested on: TK-10 renal

C/C(O)=c1\cc(C#N)c(=C(C#N)C#N)nc1C
TGI (MALME-3M melanoma): > 100 µM
TGI (HS 578T breast): > 100 µM
TGI (MOLT-4 leukemia): > 100 µM
TGI (OVCAR-8 ovarian): > 100 µM
TGI (SF-268 CNS): > 100 µM
TGI (HOP-62 NSCLC): > 100 µM
TGI (NCI-H460 lung): > 100 µM
TGI (HOP-92 NSCLC): > 100 µM
TGI (T-47D breast): > 100 µM
TGI (NCI/ADR-RES ovarian): > 100 µM
TGI (MDA-N): > 100 µM
TGI (CAKI-1 renal): > 100 µM
TGI (SNB-19 CNS): > 100 µM
TGI (NCI-H522 lung): > 100 µM
TGI (ACHN renal): > 100 µM
TGI (IGROV1 ovarian): > 100 µM
TGI (UO-31 renal): > 100 µM
TGI (OVCAR-5 ovarian): > 100 µM
TGI (HCT-15 colon): > 100 µM
TGI (UACC-62 melanoma): > 100 µM
TGI (HCT-116 colon): > 100 µM
TGI (SK-MEL-28 melanoma): > 100 µM
TGI (OVCAR-4 ovarian): > 100 µM
TGI (HL-60(TB) leukemia): > 100 µM
TGI (MCF7 breast): > 100 µM
TGI (SK-MEL-2 melanoma): > 100 µM
TGI (KM12 colon): > 100 µM
TGI (SN12C renal): > 100 µM
TGI (SF-539 CNS): > 100 µM
TGI (K-562 leukemia): > 100 µM
TGI (RXF 393 renal): > 100 µM
TGI (NCI-H23 lung): > 100 µM
TGI (DU-145 prostate): > 100 µM
TGI (SNB-75 CNS): > 100 µM
TGI (HT29 colon): > 100 µM
TGI (MDA-MB-231 breast): > 100 µM
TGI (RPMI-8226 leukemia): > 100 µM
TGI (A498 renal): > 100 µM
TGI (LOX IMVI melanoma): > 100 µM
TGI (EKVX NSCLC): > 100 µM
TGI (U251 CNS): > 100 µM
TGI (COLO 205 colon): > 100 µM
TGI (MDA-MB-435): > 100 µM
TGI (786-0 renal): > 100 µM
TGI (HCC-2998 colon): > 100 µM
TGI (NCI-H226 lung): > 100 µM
TGI (A549 NSCLC): > 100 µM
TGI (SR leukemia): > 100 µM
TGI (CCRF-CEM leukemia): > 100 µM
TGI (SW-620 colon): > 100 µM
TGI (PC-3 prostate): > 100 µM
TGI (M14 melanoma): > 100 µM
TGI (SK-MEL-5 melanoma): > 100 µM

N#Cc1nc(-c2ccccc2C(=O)O)oc1N
TGI (MALME-3M melanoma): > 100 µM
TGI (HS 578T breast): > 100 µM
TGI (MOLT-4 leukemia): > 100 µM
TGI (OVCAR-8 ovarian): > 100 µM
TGI (SF-268 CNS): > 100 µM
TGI (HOP-62 NSCLC): > 100 µM
TGI (NCI-H460 lung): > 100 µM
TGI (HOP-92 NSCLC): > 100 µM
TGI (UACC-257 melanoma): > 100 µM
TGI (T-47D breast): > 100 µM
TGI (NCI/ADR-RES ovarian): > 100 µM
TGI (MDA-N): > 100 µM
TGI (CAKI-1 renal): > 100 µM
TGI (SNB-19 CNS): > 100 µM
TGI (SK-OV-3 ovarian): > 100 µM
TGI (NCI-H522 lung): > 100 µM
TGI (ACHN renal): > 100 µM
TGI (IGROV1 ovarian): > 100 µM
TGI (UO-31 renal): > 100 µM
TGI (OVCAR-5 ovarian): > 100 µM
TGI (HCT-15 colon): > 100 µM
TGI (OVCAR-3 ovarian): > 100 µM
TGI (UACC-62 melanoma): > 100 µM
TGI (HCT-116 colon): > 100 µM
TGI (SK-MEL-28 melanoma): > 100 µM
TGI (OVCAR-4 ovarian): > 100 µM
TGI (HL-60(TB) leukemia): > 100 µM
TGI (MCF7 breast): > 100 µM
TGI (SK-MEL-2 melanoma): > 100 µM
TGI (KM12 colon): > 100 µM
TGI (SN12C renal): > 100 µM
TGI (SF-539 CNS): > 100 µM
TGI (K-562 leukemia): > 100 µM
TGI (SF-295 CNS): > 100 µM
TGI (RXF 393 renal): > 100 µM
TGI (NCI-H23 lung): > 100 µM
TGI (DU-145 prostate): > 100 µM
TGI (SNB-75 CNS): > 100 µM
TGI (HT29 colon): > 100 µM
TGI (MDA-MB-231 breast): > 100 µM
TGI (RPMI-8226 leukemia): > 100 µM
TGI (A498 renal): > 100 µM
TGI (TK-10 renal): > 100 µM
TGI (LOX IMVI melanoma): > 100 µM
TGI (EKVX NSCLC): > 100 µM
TGI (U251 CNS): > 100 µM
TGI (COLO 205 colon): > 100 µM
TGI (MDA-MB-435): > 100 µM
TGI (786-0 renal): > 100 µM
TGI (HCC-2998 colon): > 100 µM
TGI (NCI-H226 lung): > 100 µM
TGI (A549 NSCLC): > 100 µM
TGI (SR leukemia): > 100 µM
TGI (CCRF-CEM leukemia): > 100 µM
TGI (SW-620 colon): > 100 µM
TGI (PC-3 prostate): > 100 µM
TGI (M14 melanoma): > 100 µM
TGI (SK-MEL-5 melanoma): > 100 µM

COC1(C)OC[C@@]2(C)OC(C)C1(C)C2O[Si](C(C)C)(C(C)C)C(C)C (some centres undefined)
TGI (MALME-3M melanoma): 51 µM
TGI (HS 578T breast): 86.8 µM
TGI (MOLT-4 leukemia): 50.9 µM
TGI (OVCAR-8 ovarian): > 100 µM
TGI (SF-268 CNS): > 100 µM
TGI (HOP-62 NSCLC): > 100 µM
TGI (NCI-H460 lung): 62.9 µM
TGI (HOP-92 NSCLC): 63 µM
TGI (UACC-257 melanoma): 47.6 µM
TGI (T-47D breast): 71.3 µM
TGI (NCI/ADR-RES ovarian): 60.3 µM
TGI (MDA-N): > 100 µM
TGI (CAKI-1 renal): 88 µM
TGI (SNB-19 CNS): > 100 µM
TGI (SK-OV-3 ovarian): > 100 µM
TGI (NCI-H522 lung): 59.1 µM
TGI (ACHN renal): 62.2 µM
TGI (IGROV1 ovarian): 78.5 µM
TGI (UO-31 renal): 96.7 µM
TGI (OVCAR-5 ovarian): 71.8 µM
TGI (HCT-15 colon): 48 µM
TGI (OVCAR-3 ovarian): 50 µM
TGI (UACC-62 melanoma): > 100 µM
TGI (HCT-116 colon): > 100 µM
TGI (SK-MEL-28 melanoma): > 100 µM
TGI (OVCAR-4 ovarian): > 100 µM
TGI (HL-60(TB) leukemia): 40.4 µM
TGI (MCF7 breast): 32.9 µM
TGI (SK-MEL-2 melanoma): 45.2 µM
TGI (KM12 colon): > 100 µM
TGI (SN12C renal): 58.4 µM
TGI (SF-539 CNS): > 100 µM
TGI (K-562 leukemia): 82.3 µM
TGI (SF-295 CNS): 47.3 µM
TGI (RXF 393 renal): 57 µM
TGI (NCI-H23 lung): 62.5 µM
TGI (DU-145 prostate): > 100 µM
TGI (SNB-75 CNS): 69.4 µM
TGI (HT29 colon): > 100 µM
TGI (MDA-MB-231 breast): > 100 µM
TGI (RPMI-8226 leukemia): 89.3 µM
TGI (A498 renal): > 100 µM
TGI (TK-10 renal): 80.2 µM
TGI (LOX IMVI melanoma): 42.6 µM
TGI (EKVX NSCLC): 70.9 µM
TGI (U251 CNS): > 100 µM
TGI (COLO 205 colon): 32.3 µM
TGI (MDA-MB-435): > 100 µM
TGI (786-0 renal): > 100 µM
TGI (HCC-2998 colon): 40.8 µM
TGI (NCI-H226 lung): 45.8 µM
TGI (A549 NSCLC): > 100 µM
TGI (SR leukemia): 85.7 µM
TGI (CCRF-CEM leukemia): 54.6 µM
TGI (SW-620 colon): > 100 µM
TGI (PC-3 prostate): > 100 µM
TGI (M14 melanoma): > 100 µM
TGI (SK-MEL-5 melanoma): 52.5 µM
